Values of other authors as cited in publication PMC7395068, “The evolution of strategies to minimise the risk of human drug-induced liver injury (DILI) in drug discovery and development” (Archives of Toxicology, 2020).
Like-named read-outs stand apart in the source and are kept apart here. Where a SMILES comes first, the peptide text is derived from it. Bridges are numbered along the chain shown (N, C = ends). [ ]: non-standard residue; d: D form. hArg = N=C(N)NCCCC[C@H](N)C(=O)O; Mpa = O=C(O)CCS

Details: cited from earlier work
[1] = binary in vivo human DILI call, ref Chen 2016
[2] = human DILI, LTKB DILIrank category, ref Chen 2016

Structure (SMILES): C[C@H](N)Cc1ccccc1 [dextroamphetamine]
- DILI +VE (5-8), DILI -VE (-4) (in vivo): -VE
- DILI severity category (in vivo): vNo-DILI-Concern

Structure (SMILES): NS(=O)(=O)c1cc(Cl)c(Cl)c(S(N)(=O)=O)c1 [dichlorphenamide]
- DILI +VE (5-8), DILI -VE (-4) [1]: -VE
- DILI severity category [2]: vNo-DILI-Concern

Structure (SMILES): CCN(CC)CCOC(=O)C1(C2CCCCC2)CCCCC1 [dicyclomine]
- DILI +VE (5-8), DILI -VE (-4) [1]: -VE
- DILI severity category [2]: vNo-DILI-Concern

Structure (SMILES): OCC(S)CS (stereo not shown) [dimercaprol]
- DILI +VE (5-8), DILI -VE (-4) [1]: -VE
- DILI severity category [2]: vNo-DILI-Concern

Structure (SMILES): CCOC(=O)C1(c2ccccc2)CCN(CCC(C#N)(c2ccccc2)c2ccccc2)CC1 [diphenoxylate]
- DILI +VE (5-8), DILI -VE (-4) [1]: -VE
- DILI severity category [2]: vNo-DILI-Concern

Structure (SMILES): CC(C)N(CCC(C(N)=O)(c1ccccc1)c1ccccn1)C(C)C (stereo not shown) [disopyramide]
- DILI +VE (5-8), DILI -VE (-4) [1]: +VE
- DILI severity category [2]: vLess-DILI-Concern

Structure (SMILES): CCN1CC(CCN2CCOCC2)C(c2ccccc2)(c2ccccc2)C1=O (stereo not shown) [doxapram]
- DILI +VE (5-8), DILI -VE (-4) [1]: -VE
- DILI severity category [2]: vNo-DILI-Concern

Structure (SMILES): CN(C)CCC=C1c2ccccc2COc2ccccc21 [doxepin]
- DILI +VE (5-8), DILI -VE (-4) [1]: +VE
- DILI severity category [2]: vLess-DILI-Concern

Structure (SMILES): C=C1/C(=C\C=C2/CCC[C@]3(C)[C@@H]([C@H](C)/C=C/[C@H](C)C(C)C)CC[C@@H]23)C[C@@H](O)C[C@@H]1O [doxercalciferol]
- DILI +VE (5-8), DILI -VE (-4) [1]: -VE
- DILI severity category [2]: Ambiguous DILI-concern

Structure (SMILES): CCCCc1oc2ccc(NS(C)(=O)=O)cc2c1C(=O)c1ccc(OCCCN(CCCC)CCCC)cc1 [dronedarone]
- DILI +VE (5-8), DILI -VE (-4) [1]: +VE
- DILI severity category [2]: vMost-DILI-Concern

Structure (SMILES): CNCC[C@H](Oc1cccc2ccccc12)c1cccs1 [duloxetine]
- DILI +VE (5-8), DILI -VE (-4) (in vivo): +VE
- DILI severity category (in vivo): vMost-DILI-Concern

Structure (SMILES): C[C@]12C=CC(=O)N[C@@H]1CC[C@@H]1[C@@H]2CC[C@]2(C)[C@@H](C(=O)Nc3cc(C(F)(F)F)ccc3C(F)(F)F)CC[C@@H]12 [dutasteride]
- DILI +VE (5-8), DILI -VE (-4) [1]: -VE
- DILI severity category [2]: vNo-DILI-Concern

Structure (SMILES): O=C(O)CN(CCN(CC(=O)O)CC(=O)O)CC(=O)O [edetic acid]
- DILI +VE (5-8), DILI -VE (-4) (in vivo): -VE
- DILI severity category (in vivo): Ambiguous DILI-concern

Structure (SMILES): CN1CCC[C@@H]1Cc1c[nH]c2ccc(CCS(=O)(=O)c3ccccc3)cc12 [eletriptan]
- DILI +VE (5-8), DILI -VE (-4) [1]: -VE
- DILI severity category [2]: Ambiguous DILI-concern

Structure (SMILES): CC1=NN(c2ccc(C)c(C)c2)C(=O)/C1=N\Nc1cccc(-c2cccc(C(=O)O)c2)c1O [eltrombopag olamine]
- DILI +VE (5-8), DILI -VE (-4) [1]: +VE
- DILI severity category [2]: vMost-DILI-Concern

Structure (SMILES): Nc1nc(=O)n([C@@H]2CS[C@H](CO)O2)cc1F [emtricitabine]
- DILI +VE (5-8), DILI -VE (-4) [1]: -VE
- DILI severity category [2]: Ambiguous DILI-concern

Structure (SMILES): CN[C@@H](C)[C@H](O)c1ccccc1 [ephedrine]
- DILI +VE (5-8), DILI -VE (-4) (in vivo): -VE
- DILI severity category (in vivo): vNo-DILI-Concern

Structure (SMILES): CNC[C@H](O)c1ccc(O)c(O)c1 [epinephrine]
- DILI +VE (5-8), DILI -VE (-4) [1]: -VE
- DILI severity category [2]: vNo-DILI-Concern

Structure (SMILES): COc1cccc2c1C(=O)c1c(O)c3c(c(O)c1C2=O)C[C@@](O)(C(=O)CO)C[C@@H]3O[C@H]1C[C@H](N)[C@@H](O)[C@H](C)O1 [epirubicin]
- DILI +VE (5-8), DILI -VE (-4) [1]: -VE
- DILI severity category [2]: Ambiguous DILI-concern

Structure (SMILES): COC(=O)[C@@H]1CC2=CC(=O)CC[C@]2(C)[C@@]23O[C@@H]2C[C@@]2(C)[C@@H](CC[C@@]24CCC(=O)O4)[C@H]13 [eplerenone]
- DILI +VE (5-8), DILI -VE (-4) [1]: -VE
- DILI severity category [2]: Ambiguous DILI-concern

Structure (SMILES): CCCCC[C@H](O)/C=C/[C@@H]1[C@H]2C/C(=C/CCCC(=O)O)O[C@H]2C[C@H]1O [epoprostenol]
- DILI +VE (5-8), DILI -VE (-4) [1]: -VE
- DILI severity category [2]: Ambiguous DILI-concern

Structure (SMILES): CCCCc1ncc(/C=C(\Cc2cccs2)C(=O)O)n1Cc1ccc(C(=O)O)cc1 [eprosartan]
- DILI +VE (5-8), DILI -VE (-4) [1]: -VE
- DILI severity category [2]: Ambiguous DILI-concern

Structure (SMILES): N=C(N)NCCCC[C@@H]1NC(=O)CCSSC[C@@H](C(N)=O)NC(=O)[C@@H]2CCCN2C(=O)[C@H](Cc2c[nH]c3ccccc23)NC(=O)[C@H](CC(=O)O)NC(=O)CNC1=O [eptifibatide] ([Mpa][hArg]GDWPC-NH2; disulfide 1-7)
- DILI +VE (5-8), DILI -VE (-4) (in vivo): -VE
- DILI severity category (in vivo): vNo-DILI-Concern

Structure (SMILES): C[C@@H](O)[C@H]1C(=O)N2C(C(=O)O)=C(S[C@@H]3CN[C@H](C(=O)Nc4cccc(C(=O)O)c4)C3)[C@H](C)[C@H]12 [ertapenem]
- DILI +VE (5-8), DILI -VE (-4) [1]: -VE
- DILI severity category [2]: Ambiguous DILI-concern

Structure (SMILES): CN(C)CCC[C@@]1(c2ccc(F)cc2)OCc2cc(C#N)ccc21 [escitalopram]
- DILI +VE (5-8), DILI -VE (-4) (in vivo): +VE
- DILI severity category (in vivo): vLess-DILI-Concern

Structure (SMILES): COc1ccc2[n-]c([S@@+]([O-])Cc3ncc(C)c(OC)c3C)nc2c1.[Na+] [esomeprazole Sodium]
- DILI +VE (5-8), DILI -VE (-4) (in vivo): +VE
- DILI severity category (in vivo): vLess-DILI-Concern
